From paper PMC10656490, “Sequence-based prediction of the intrinsic solubility of peptides containing non-natural amino acids” (Nature Communications, 2023) come the findings set out here.

This data set is described as follows: Solubility by ultracentrifugation (GLP-1 variants). The class given is physicochemical. The settings on record: for Ultracentrifugation: GLP1 variants, Figure 3c; for Ultracentrifugation / First Run / Second Run: in mg/mL; for First Run / Second Run: source data Supplementary Fig. 4, GLP-1 variants, 2 stands where Table 3 prints S; for solubility: 10 mM citrate 10 mM phosphate buffer, pH 7, GLP-1 variants, 2 mg/mL in 10 mM citrate 10 mM phosphate pH 7, 30 min 500,000 g 4 °C. As to the method:
Relative solubility was measured using a recently developed PEG precipitation assay. For all PYY variants the standard assay worked well, and no changes had to be implemented (Fig. 2a). […] Moreover, to ensure that the results stemming from the AMS assay are consistent and reliable, we performed the 18 A experiments twice independently on different days. The results confirmed that they are indeed replicable, and we were therefore confident to use them for the validation of our approach (Supplementary Fig. 3). […] Even at final concentrations of 0.33 mg/mL (instead of 1 mg/mL) most variants remained insoluble. We used ultracentrifugation to determine the relative solubilities of the GLP-1 variants (Table 3). To confirm the reliability of this method we replicated the results on a different day with the same stock solutions (Supplementary Fig. 4).
Aliquots of 1 mg were prepared from the purified and lyophilised stocks. […] Briefly, a precipitant is titrated in increasing concentration to a fixed concentration of protein to induce precipitation of the protein. The samples are incubated for 48 h at 4° after mixing. The samples are centrifuged and the remaining protein concentration is measured in the supernatant using a plate reader. PYY and 18 A variants were dissolved in 10 mM citrate 10 mM phosphate buffer at pH 7 for a final concentration of 3 mg/mL. The assay was run with 50% 6000 PEG for PYY and with 3.8 M AMS for 18 A. To improve throughput, a multichannel robot was employed to measure several peptides at once with the workflow being kept the same as described previously. […] 120 µL of each sample were centrifuged using an OptimaTLX Ultracentrifuge and spinning for 30 min at 500,000 g at 4 °C. The supernatant was removed, and the peptide concentration was measured using a NanoDrop.

Setting [1] is: run 1, read-out: Run 1 solubility (peptide concentration in supernatant).
[2] abbreviates: run 2, read-out: Run 2 solubility (peptide concentration in supernatant).

Read-outs that look alike come from different tables or passages of the source. Where a SMILES comes first, the peptide text is derived from it. [ ]: non-standard residue; d: D form. Cha = N[C@@H](CC1CCCCC1)C(=O)O; Cit = NC(=O)NCCC[C@H](N)C(=O)O; Nle = CCCC[C@H](N)C(=O)O; Aib = CC(C)(N)C(=O)O

Take `CC[C@H](C)[C@H](NC(=O)[C@H](Cc1ccccc1)NC(=O)[C@H](CCC(=O)O)NC(=O)[C@H](CCCCN)NC(=O)[C@H](C)NC(=O)[C@H](C)NC(=O)[C@H](CCC(N)=O)NC(=O)CNC(=O)[C@H](CCC(=O)O)NC(=O)[C@H](CC(C)C)NC(=O)[C@H](Cc1ccc(O)cc1)NC(=O)[C@H](CO)NC(=O)[C@H](CO)NC(=O)[C@@H](NC(=O)[C@H](CC(=O)O)NC(=O)[C@H](CO)NC(=O)[C@@H](NC(=O)[C@H](Cc1ccccc1)NC(=O)[C@@H](NC(=O)CNC(=O)[C@H](CCC(=O)O)NC(=O)[C@H](C)NC(=O)[C@@H](N)Cc1c[nH]cn1)[C@@H](C)O)[C@@H](C)O)C(C)C)C(=O)N[C@@H](C)C(=O)N[C@@H](Cc1c[nH]c2ccccc12)C(=O)N[C@@H](CC(C)C)C(=O)N[C@H](C(=O)N[C@@H](CCCCN)C(=O)NCC(=O)N[C@@H](CCCNC(=N)N)C(N)=O)C(C)C` [Compound 1, reference compound]: the Ultracentrifugation stood at 0.9813, the “First Run” value is 0.5803 and the “Second Run” value came to 1.382.

For `CC[C@H](C)[C@H](NC(=O)[C@H](Cc1ccccc1)NC(=O)[C@H](CCC(=O)O)NC(=O)[C@H](CCCCN)NC(=O)[C@H](C)NC(=O)[C@H](CC1CCCCC1)NC(=O)[C@H](CCC(N)=O)NC(=O)CNC(=O)[C@H](CCC(=O)O)NC(=O)[C@H](CC(C)C)NC(=O)[C@H](Cc1ccc(O)cc1)NC(=O)[C@H](CO)NC(=O)[C@H](CO)NC(=O)[C@@H](NC(=O)[C@H](CC(=O)O)NC(=O)[C@H](CO)NC(=O)[C@@H](NC(=O)[C@H](Cc1ccccc1)NC(=O)[C@@H](NC(=O)CNC(=O)[C@H](CCC(=O)O)NC(=O)[C@H](C)NC(=O)[C@@H](N)Cc1c[nH]cn1)[C@@H](C)O)[C@@H](C)O)C(C)C)C(=O)N[C@@H](C)C(=O)N[C@@H](Cc1c[nH]c2ccccc12)C(=O)N[C@@H](CC(C)C)C(=O)N[C@H](C(=O)N[C@@H](CCCCN)C(=O)NCC(=O)N[C@@H](CCCNC(=N)N)C(N)=O)C(C)C` [Compound 2] (H-HAEGTFTSDVSSYLEGQ[Cha]AKEFIAWLVKGR-NH2; N-terminus assumed), the Ultracentrifugation was found to be 0, the “First Run” value is 0 and the “Second Run” value came out at 0.

Take `CCCC[C@H](NC(=O)[C@H](CCC(N)=O)NC(=O)CNC(=O)[C@H](CCC(=O)O)NC(=O)[C@H](CC(C)C)NC(=O)[C@H](Cc1ccc(O)cc1)NC(=O)[C@H](CO)NC(=O)[C@H](CO)NC(=O)[C@@H](NC(=O)[C@H](CC(=O)O)NC(=O)[C@H](CO)NC(=O)[C@@H](NC(=O)[C@H](Cc1ccccc1)NC(=O)[C@@H](NC(=O)CNC(=O)[C@H](CCC(=O)O)NC(=O)[C@H](C)NC(=O)[C@@H](N)Cc1c[nH]cn1)[C@@H](C)O)[C@@H](C)O)C(C)C)C(=O)N[C@@H](C)C(=O)N[C@@H](CCCCN)C(=O)N[C@@H](CCC(=O)O)C(=O)N[C@@H](Cc1ccccc1)C(=O)N[C@H](C(=O)N[C@@H](C)C(=O)N[C@@H](Cc1c[nH]c2ccccc12)C(=O)N[C@@H](CC(C)C)C(=O)N[C@H](C(=O)N[C@@H](CCCCN)C(=O)NCC(=O)N[C@@H](CCCNC(=N)N)C(N)=O)C(C)C)[C@@H](C)CC` [Compound 3] (H-HAEGTFTSDVSSYLEGQ[Nle]AKEFIAWLVKGR-NH2; N-terminus assumed): the Ultracentrifugation is 0.1242, the “First Run” value is 0.086 and the “Second Run” value is listed as 0.1624. Under setting [1], the solubility is 90 µg/mL. Besides, the solubility under setting [2] stood at 160 µg/mL.

On to `CC[C@H](C)[C@H](NC(=O)[C@H](Cc1ccccc1)NC(=O)[C@H](CCC(=O)O)NC(=O)[C@H](CCCCN)NC(=O)[C@H](C)NC(=O)[C@H](CCCCNC(C)=O)NC(=O)[C@H](CCC(N)=O)NC(=O)CNC(=O)[C@H](CCC(=O)O)NC(=O)[C@H](CC(C)C)NC(=O)[C@H](Cc1ccc(O)cc1)NC(=O)[C@H](CO)NC(=O)[C@H](CO)NC(=O)[C@@H](NC(=O)[C@H](CC(=O)O)NC(=O)[C@H](CO)NC(=O)[C@@H](NC(=O)[C@H](Cc1ccccc1)NC(=O)[C@@H](NC(=O)CNC(=O)[C@H](CCC(=O)O)NC(=O)[C@H](C)NC(=O)[C@@H](N)Cc1c[nH]cn1)[C@@H](C)O)[C@@H](C)O)C(C)C)C(=O)N[C@@H](C)C(=O)N[C@@H](Cc1c[nH]c2ccccc12)C(=O)N[C@@H](CC(C)C)C(=O)N[C@H](C(=O)N[C@@H](CCCCN)C(=O)NCC(=O)N[C@@H](CCCNC(=N)N)C(N)=O)C(C)C` [Compound 4] (H-HAEGTFTSDVSSYLEGQK(Ac)AKEFIAWLVKGR-NH2; N-terminus assumed), for which the Ultracentrifugation worked out at 2, the “First Run” value amounted to 2 and the “Second Run” value stood at 2. Moreover, under setting [1], the solubility was more than 2000 µg/mL. For the same compound, the solubility under setting [2] is more than 2000 µg/mL.

On to `CC[C@H](C)[C@H](NC(=O)[C@H](Cc1ccccc1)NC(=O)[C@H](CCC(=O)O)NC(=O)[C@H](CCCCN)NC(=O)[C@H](C)NC(=O)C(C)(C)NC(=O)[C@H](CCC(N)=O)NC(=O)CNC(=O)[C@H](CCC(=O)O)NC(=O)[C@H](CC(C)C)NC(=O)[C@H](Cc1ccc(O)cc1)NC(=O)[C@H](CO)NC(=O)[C@H](CO)NC(=O)[C@@H](NC(=O)[C@H](CC(=O)O)NC(=O)[C@H](CO)NC(=O)[C@@H](NC(=O)[C@H](Cc1ccccc1)NC(=O)[C@@H](NC(=O)CNC(=O)[C@H](CCC(=O)O)NC(=O)[C@H](C)NC(=O)[C@@H](N)Cc1c[nH]cn1)[C@@H](C)O)[C@@H](C)O)C(C)C)C(=O)N[C@@H](C)C(=O)N[C@@H](Cc1c[nH]c2ccccc12)C(=O)N[C@@H](CC(C)C)C(=O)N[C@H](C(=O)N[C@@H](CCCCN)C(=O)NCC(=O)N[C@@H](CCCNC(=N)N)C(N)=O)C(C)C` [Compound 5] (H-HAEGTFTSDVSSYLEGQ[Aib]AKEFIAWLVKGR-NH2; N-terminus assumed), for which the Ultracentrifugation stood at 0.08054, the “First Run” value is reported as 0.09475 and the “Second Run” value is recorded as 0.06633. In addition, the solubility under setting [1] amounted to 90 µg/mL. The solubility under setting [2] was 70 µg/mL.

`CC[C@H](C)[C@H](NC(=O)[C@H](Cc1ccccc1)NC(=O)[C@H](CCC(=O)O)NC(=O)[C@H](CCCCN)NC(=O)[C@H](C)NC(=O)[C@H](CCCNC(N)=O)NC(=O)[C@H](CCC(N)=O)NC(=O)CNC(=O)[C@H](CCC(=O)O)NC(=O)[C@H](CC(C)C)NC(=O)[C@H](Cc1ccc(O)cc1)NC(=O)[C@H](CO)NC(=O)[C@H](CO)NC(=O)[C@@H](NC(=O)[C@H](CC(=O)O)NC(=O)[C@H](CO)NC(=O)[C@@H](NC(=O)[C@H](Cc1ccccc1)NC(=O)[C@@H](NC(=O)CNC(=O)[C@H](CCC(=O)O)NC(=O)[C@H](C)NC(=O)[C@@H](N)Cc1c[nH]cn1)[C@@H](C)O)[C@@H](C)O)C(C)C)C(=O)N[C@@H](C)C(=O)N[C@@H](Cc1c[nH]c2ccccc12)C(=O)N[C@@H](CC(C)C)C(=O)N[C@H](C(=O)N[C@@H](CCCCN)C(=O)NCC(=O)N[C@@H](CCCNC(=N)N)C(N)=O)C(C)C` [Compound 6] (H-HAEGTFTSDVSSYLEGQ[Cit]AKEFIAWLVKGR-NH2; N-terminus assumed): the Ultracentrifugation is listed as 2, the “First Run” value is recorded as 2 and the “Second Run” value is 2. Moreover, the solubility under setting [1] was more than 2000 µg/mL. Moreover, the solubility under setting [2] was more than 2000 µg/mL.

`CC[C@H](C)[C@H](NC(=O)[C@H](Cc1ccccc1)NC(=O)[C@H](CCC(=O)O)NC(=O)[C@H](CCCCN)NC(=O)[C@H](C)NC(=O)[C@H](CC1CCCCC1)NC(=O)[C@H](CCC(N)=O)NC(=O)CNC(=O)[C@H](CCC(=O)O)NC(=O)[C@H](CC(C)C)NC(=O)[C@H](Cc1ccc(O)cc1)NC(=O)[C@H](CO)NC(=O)[C@H](CO)NC(=O)[C@@H](NC(=O)[C@H](CC(=O)O)NC(=O)[C@H](CO)NC(=O)[C@@H](NC(=O)[C@H](Cc1ccccc1)NC(=O)[C@@H](NC(=O)CNC(=O)[C@H](CCC(=O)O)NC(=O)[C@H](C)NC(=O)[C@@H](N)Cc1c[nH]cn1)[C@@H](C)O)[C@@H](C)O)C(C)C)C(=O)N[C@@H](C)C(=O)N[C@@H](Cc1c[nH]c2ccccc12)C(=O)N[C@@H](CC(C)C)C(=O)N[C@H](C(=O)N[C@@H](CCCCN)C(=O)NCC(=O)N[C@@H](CCCNC(N)=O)C(N)=O)C(C)C` [Compound 7] (H-HAEGTFTSDVSSYLEGQ[Cha]AKEFIAWLVKG[Cit]-NH2; N-terminus assumed): the Ultracentrifugation turned out to be 0.8319, the “First Run” value is recorded as 0.8416 and the “Second Run” value turned out to be 0.8222. In addition, under setting [1], the solubility was 840 µg/mL. For the same compound, the solubility under setting [2] was found to be 820 µg/mL.
